The values below come from patent publication US20230257444A1, “FUSION PROTEIN AND COMBINATIONS THEREOF” (Agency for Science, Technology and Research, priority 2020, published 2023).

In one experiment the test system is SC5314 Candida albicans. The experiment in a line: In vitro combination therapy checkerboard dilution assay (Amphotericin B & hDectin1-Fc) with human primary macrophages. Format: cell-based. To be noted: 24 hours, 37° C.
The subject of the next experiment is Candida albicans. Description: Minimum inhibitory concentration assay (CLSI reference method). Format: cell-based. Conditions: 37° C. The source says: Linker conjugation site and its length can affect the activity of drug in the way it is able to interact with its target as a result of a change in preferred conformation. Amphotericin B has two possible sites of conjugation: the carboxylic acid on the macrocyclic ring (C-linked) and the amine on the sugar (N-linked). To investigate how conjugation to each of these sites affects the activity of Amphotericin B, polyethylene glycol (PEG) linkers of three different repeat units were attached to them (FIG. 20) and their MIC of Candida albicans evaluated against the unconjugated free Amphotericin B.
The MIC assay of the N-linked and C-linked PEG conjugated Amphotericin B was conducted for 3 different PEG lengths of 4, 12 and 24 repeat units versus unconjugated Amphotericin B (Table 3). The PEG conjugated Amphotericin B and free Amphotericin B were diluted and incubated at 37° C. for 24 hrs with […] Candida albicans cells/well according to the CLSI reference method for antifungal susceptibility testing of yeasts.

Each structure is given as a SMILES string.

Description for SC5314 Candida albicans: Human peripheral blood CD14+ monocytes were cultured at 1×10^6 cells/mL in 5 mL of ImmunoCult™-SF Macrophage Differentiation Medium with Human Recombinant M-CSF at 50 ng/ml in a T-25 flask at 37° C. in a 5% CO2 incubator. On Day 4, 2.5 mL of fresh ImmunoCult™-SF Macrophage Differentiation Medium was added to the flask. On Day 6, M1 activation was initiated with the addition of 50 ng/mL IFN-γ. On Day 8, the macrophages were treated with ACCUTASE and scrapped from the flask. The cells were centrifuged and resuspended in RPMI medium with 10% FBS and seeded into 96 well plates at 10^5 cells/well. The co-culture assay involves the addition of 10^5 cells/well of SC5314 Candida albicans cells to wells containing 10^5 cells/well of human primary macrophages cells with final concentration of hDectin1-Fc at 0, 1, 10 or 100 g/ml and varying concentration of Amphotericin B in a checkerboard dilution assay format in a 96 well plate. The assay was incubated for 24 hr at 37° C. in a 5% CO2 atmosphere incubator and the MIC and MFC determined visual using a Nikon Eclipse Ti-E inverted microscope.
10′ Candida albicans cells and 10′ human primary macropahges were seeded per well in a checkerboard dilution assay of Amphotericin B with the respective concentration of hDectin1-Fc (0, 10, 100 μg/ml) and incubated for 24 hours at 37° C.

For the compound `C[C@@H]1[C@H](O)[C@@H](C)/C=C/C=C/C=C/C=C/C=C/C=C/C=C/[C@H](O[C@@H]2O[C@H](C)[C@@H](O)[C@H](N)[C@@H]2O)C[C@@H]2O[C@](O)(C[C@@H](O)C[C@@H](O)[C@H](O)CC[C@@H](O)C[C@@H](O)CC(=O)O[C@H]1C)C[C@H](O)[C@H]2C(=O)O` [Amphotericin B], the “basal MFC of Amphotericin B” value with SC5314 Candida albicans (absence of hDectin1-Fc) was determined as 0.11 µM. In the experiment on SC5314 Candida albicans (hDectin1-Fc concentration of 100 µg/ml), the “MFC of Amphotericin B” value was 0.06 µM. Moreover, the “24hr MIC” value with Candida albicans stood at 0.75 μm.
